Test system: BACE1
Assay: Pulse-chase and cell-surface biotinylation of newly-synthesized BACE1
Type: cell-based, human
Conditions: BACE1WT expressing cells, 1.5 hours after the pulse
Method: Confluent cells were starved for 1 hr in Met/Cys free medium, labeled with 100 μCi [^35S]-Met/Cys (Trans35S-Label, >1000 Ci/mmol; Pierce) in starvation medium/dish and chased for 8, 16, and 24 hours with DMEM supplemented with 5 mM cold Met/Cys. Cell extracts were pre-cleared with BioMag Protein A (Polysciences, Inc.). Beads were used at the concentration of 15 μl of the slurry per sample and separated with a magnetic holder. BACE1 was then immunoprecipitated with anti-BACE1 antibodies and recovered with BioMag Protein A as above. The immunoprecipitate-bead complexes were washed 3 times and boiled in sample buffer. Beads were then separated and the samples were analyzed by reducing SDS-PAGE (on a 4-12% Bis-Tris NuPAGE system) and autoradiography.
For cell-surface biotinylation, cells were labeled as above and chased for 1.5 hours. […] Proteins were eluted and recovered as above; BACE1 was then immunopurified and analyzed by reducing SDS-PAGE and autoradiography.
FIG. 3 illustrates how transient lysine acetylation controls both translocation along the secretory pathway and molecular stability of the nascent BACE1 protein. […] Immunoprecipitates were analyzed by SDS-PAGE and autoradiography. […] BACE1 was then immunoprecipitated as above and analyzed by reducing SDS-PAGE and autoradiography. Results are expressed as percentage of total newly-synthesized BACE1. […]

SMILES: CCCCCCCCCCCCC/C=C/[C@@H](O)[C@H](CO)NC(=O)CCCCC [ceramide, C6-ceramide]
- translocation of newly-synthesized BACE1 to the cell surface: increasing the translocation of newly-synthesized BACE1 to the cell surface to levels almost similar to BACE1Gln

Source: patent US20090042993A1, “IDENTIFICATION OF NOVEL POST-TRANSLATIONAL PROTEIN MODIFICATIONS” (priority 2007, published 2009)
